According to patent US11427558B1, “Indazoles and azaindazoles as LRRK2 inhibitors” (ESCAPE Bio, Inc., priority 2019, dated 2022):

How the values were obtained:
[1] = target: Recombinant wild type LRRK2 protein (Homo sapiens (Human), UniProt Q5S007); assay: LRRK2 kinase activity, LanthaScreen TR-FRET assay (wild type); assay type: biochemical; conditions: LRRKtide 400 nM, 25 μM ATP, 60 min; read-out: LRRK2 WT IC50
Procedure: (§1) LRRK2 kinase activity was measured using a LanthaScreen™ Kinase Activity Assay from ThermoFisher Scientific. Recombinant wild type or G2019S-LRRK2 protein (Life Technologies, PR8604B or PV4881, respectively), was incubated with a fluorescein-labeled peptide substrate called LRRKtide that is based upon ezrin/radixin/moesin (ERM) (Life Technologies, PV4901) in the presence of ATP and serially diluted compound. […] Compound-dependent inhibition of the TR-FRET signal was used to generate a concentration-response curve for IC50 determination.
(§2) After 60 min incubation at room temperature, the reaction was stopped by addition of 10 μL of 2× stop solution containing a final concentration of 2 nM anti-pERM antibody and 10 mM EDTA. […] The ratio of the 520 nm and 495 nm emission was used to analyze the data.

[2] = target: Recombinant G2019S-LRRK2 protein (Homo sapiens (Human), UniProt Q5S007, G2019S); assay: LRRK2 kinase activity, LanthaScreen TR-FRET assay (G2019S); assay type: biochemical; conditions: LRRKtide 400 nM, 25 μM ATP, 60 min
Procedure: as §1, §2

Chain of Recombinant G2019S-LRRK2 protein (Q5S007 whole entry G2019S): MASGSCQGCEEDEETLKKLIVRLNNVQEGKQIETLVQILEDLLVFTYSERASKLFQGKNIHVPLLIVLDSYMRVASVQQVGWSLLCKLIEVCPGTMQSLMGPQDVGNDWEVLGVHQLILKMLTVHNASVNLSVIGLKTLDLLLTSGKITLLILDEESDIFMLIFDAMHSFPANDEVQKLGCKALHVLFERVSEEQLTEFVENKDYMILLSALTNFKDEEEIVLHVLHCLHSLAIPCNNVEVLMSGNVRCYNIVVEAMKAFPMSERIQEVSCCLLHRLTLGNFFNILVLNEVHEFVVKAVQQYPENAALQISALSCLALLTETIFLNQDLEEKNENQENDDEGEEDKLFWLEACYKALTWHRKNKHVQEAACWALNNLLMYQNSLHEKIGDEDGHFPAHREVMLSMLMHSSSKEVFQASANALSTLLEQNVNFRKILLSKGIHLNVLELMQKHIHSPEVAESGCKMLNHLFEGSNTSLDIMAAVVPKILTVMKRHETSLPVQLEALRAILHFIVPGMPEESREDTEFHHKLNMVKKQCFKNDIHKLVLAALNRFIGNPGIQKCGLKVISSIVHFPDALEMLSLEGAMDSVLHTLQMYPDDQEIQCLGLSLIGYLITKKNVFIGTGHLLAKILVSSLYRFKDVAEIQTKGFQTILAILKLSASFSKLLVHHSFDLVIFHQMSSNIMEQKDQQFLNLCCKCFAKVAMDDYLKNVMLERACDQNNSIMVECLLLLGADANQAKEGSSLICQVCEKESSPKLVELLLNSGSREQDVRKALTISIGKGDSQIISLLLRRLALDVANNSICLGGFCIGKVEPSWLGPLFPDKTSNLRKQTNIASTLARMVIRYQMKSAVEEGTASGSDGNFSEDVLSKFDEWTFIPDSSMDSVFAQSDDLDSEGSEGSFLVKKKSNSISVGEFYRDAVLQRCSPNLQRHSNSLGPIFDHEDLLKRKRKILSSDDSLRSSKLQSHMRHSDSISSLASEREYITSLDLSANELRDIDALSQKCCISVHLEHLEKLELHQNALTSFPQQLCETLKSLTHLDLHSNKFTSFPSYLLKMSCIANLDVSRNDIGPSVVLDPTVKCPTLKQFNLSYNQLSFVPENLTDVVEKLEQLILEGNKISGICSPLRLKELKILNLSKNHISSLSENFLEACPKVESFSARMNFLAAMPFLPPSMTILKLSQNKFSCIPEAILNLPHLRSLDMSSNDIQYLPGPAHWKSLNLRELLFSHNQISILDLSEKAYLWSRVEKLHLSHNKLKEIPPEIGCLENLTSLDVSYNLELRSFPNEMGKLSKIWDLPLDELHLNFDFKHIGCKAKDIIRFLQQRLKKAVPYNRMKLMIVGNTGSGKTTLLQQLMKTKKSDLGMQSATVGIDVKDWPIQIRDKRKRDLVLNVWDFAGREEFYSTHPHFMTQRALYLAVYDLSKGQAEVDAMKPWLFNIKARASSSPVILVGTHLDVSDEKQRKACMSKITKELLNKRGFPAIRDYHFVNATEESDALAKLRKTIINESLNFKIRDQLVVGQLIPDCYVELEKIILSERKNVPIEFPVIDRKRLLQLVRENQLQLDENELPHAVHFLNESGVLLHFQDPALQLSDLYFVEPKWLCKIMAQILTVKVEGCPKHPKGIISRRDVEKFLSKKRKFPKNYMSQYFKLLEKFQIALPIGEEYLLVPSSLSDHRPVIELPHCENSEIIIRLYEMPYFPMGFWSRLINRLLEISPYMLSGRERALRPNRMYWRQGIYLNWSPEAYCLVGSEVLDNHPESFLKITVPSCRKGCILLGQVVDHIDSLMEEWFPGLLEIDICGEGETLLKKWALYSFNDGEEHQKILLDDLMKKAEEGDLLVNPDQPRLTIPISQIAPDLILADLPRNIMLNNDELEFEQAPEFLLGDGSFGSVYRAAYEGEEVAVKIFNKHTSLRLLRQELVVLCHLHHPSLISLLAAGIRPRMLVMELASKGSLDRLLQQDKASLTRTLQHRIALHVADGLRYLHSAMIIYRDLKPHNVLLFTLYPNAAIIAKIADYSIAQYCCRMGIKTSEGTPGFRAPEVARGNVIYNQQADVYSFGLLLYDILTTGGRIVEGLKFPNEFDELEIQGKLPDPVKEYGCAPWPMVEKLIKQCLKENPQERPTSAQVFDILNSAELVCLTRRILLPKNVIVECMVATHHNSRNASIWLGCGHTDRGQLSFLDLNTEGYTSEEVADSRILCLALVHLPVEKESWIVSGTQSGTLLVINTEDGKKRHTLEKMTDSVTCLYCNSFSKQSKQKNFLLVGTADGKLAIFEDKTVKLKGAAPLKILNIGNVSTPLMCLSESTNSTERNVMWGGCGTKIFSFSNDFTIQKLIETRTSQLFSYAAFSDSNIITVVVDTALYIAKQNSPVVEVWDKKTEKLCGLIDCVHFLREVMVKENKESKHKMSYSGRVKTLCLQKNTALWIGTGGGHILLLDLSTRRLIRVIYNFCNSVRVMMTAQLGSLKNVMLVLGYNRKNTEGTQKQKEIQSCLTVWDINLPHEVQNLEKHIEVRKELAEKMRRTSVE
Chain of Recombinant wild type LRRK2 protein (Q5S007 whole entry): as the sequence (Q5S007 whole entry G2019S) above, with S2019G counted along it

Row | SMILES | IC50 [1] [nM] | IC50 [2] [nM]
1 | Cc1cc(C#N)cnc1C(=O)Nc1ccc2[nH]nc(-c3cccc(N(C)C)c3)c2c1 [Example 30, 5-Cyano-N-(3-(3-(dimethylamino)phenyl)-1H-indazol-5-yl)-3-methylpicolinamide] | 100 to 1000 | < 100
2 | Cc1cc(C#N)cnc1C(=O)Nc1ccc2[nH]nc(-c3ccncc3)c2c1 [Example 31, 5-Cyano-3-methyl-N-(3-(pyridin-4-yl)-1H-indazol-5-yl)picolinamide] | 100 to 1000 | < 100
3 | Cc1cc(C#N)cnc1C(=O)Nc1ccc2[nH]nc(-c3cnn(C(F)F)c3)c2c1 [Example 32, 5-Cyano-N-(3-(1-(difluoromethyl)-1H-pyrazol-4-yl)-1H-indazol-5-yl)-3-methylpicolinamide] | 100 to 1000 | < 100
4 | Cc1cc(C#N)cnc1C(=O)Nc1ccc2[nH]nc(-c3cnn(C4CCOCC4)c3)c2c1 [Example 33, 5-cyano-3-methyl-N-(3-(1-(tetrahydro-2H-pyran-4-yl)-1H-pyrazol-4-yl)-1H-indazol-5-yl)picolinamide] | < 100 | < 100
5 | Cc1cc(C#N)cnc1C(=O)Nc1ccc2[nH]nc(-c3cccc(S(C)(=O)=O)c3)c2c1 [Example 34, 5-Cyano-3-methyl-N-(3-(3-(methylsulfonyl)phenyl)-1H-indazol-5-yl)picolinamide] | < 100 | < 100
6 | Cc1cc(C#N)cnc1C(=O)Nc1ccc2[nH]nc(-c3ccc(C(F)(F)F)cc3)c2c1 [Example 35, 5-Cyano-3-methyl-N-(3-(4-(trifluoromethyl)phenyl)-1H-indazol-5-yl)picolinamide] | > 10000 | 100 to 1000
7 | Cc1cc(C#N)cnc1C(=O)Nc1ccc2[nH]nc(-c3cnoc3C)c2c1 [Example 36, 5-Cyano-3-methyl-N-(3-(5-methylisoxazol-4-yl)-1H-indazol-5-yl)picolinamide] | > 10000 | < 100
8 | Cc1cc(C#N)cnc1C(=O)Nc1ccc2[nH]nc(-c3cncc(N4CCOCC4)c3)c2c1 [Example 37, 5-Cyano-3-methyl-N-(3-(5-morpholinopyridin-3-yl)-1H-indazol-5-yl)picolinamide] | 100 to 1000 | < 100
9 | Cc1cc(C#N)cnc1C(=O)Nc1ccc2[nH]nc(-c3ccc(OC(C)C)nc3)c2c1 [Example 38, 5-Cyano-N-(3-(6-isopropoxypyridin-3-yl)-1H-indazol-5-yl)-3-methylpicolinamide] | 100 to 1000 | < 100
10 | N#Cc1cnc(C(=O)Nc2ccc3[nH]nc(-c4ccoc4)c3c2)cc1O [Example 39, 5-Cyano-N-(3-(furan-3-yl)-1H-indazol-5-yl)-4-hydroxypicolinamide] | 1000 to 10000 | 1000 to 10000
11 | Cc1cc(C#N)cnc1C(=O)Nc1ccc2[nH]nc(-c3ccccc3)c2c1 [Example 40, 5-Cyano-3-methyl-N-(3-phenyl-1H-indazol-5-yl)picolinamide] | 100 to 1000 | < 100
12 | Cc1cc(C#N)cnc1C(=O)Nc1ccc2[nH]nc(-c3cccc(C#N)c3)c2c1 [Example 41, 5-Cyano-N-(3-(3-cyanophenyl)-1H-indazol-5-yl)-3-methylpicolinamide] | 100 to 1000 | < 100
13 | Cc1cc(C#N)cnc1C(=O)Nc1ccc2[nH]nc(-c3cncc(C#N)c3)c2c1 [Example 42, 5-Cyano-N-(3-(5-cyanopyridin-3-yl)-1H-indazol-5-yl)-3-methylpicolinamide] | 100 to 1000 | < 100
14 | Cc1nc(C#N)n(C)c1C(=O)Nc1ccc2[nH]nc(-c3ccccc3)c2c1 [Example 43, 2-Cyano-1,4-dimethyl-N-(3-phenyl-1H-indazol-5-yl)-1H-imidazole-5-carboxamide] | 100 to 1000 | < 100
15 | Cc1cc(C#N)c(C)nc1C(=O)Nc1ccc2[nH]nc(-c3ccoc3)c2c1 [Example 44, 5-Cyano-N-(3-(furan-3-yl)-1H-indazol-5-yl)-3,6-dimethylpicolinamide] | < 100 | < 100
16 | Cc1cc(C#N)cnc1C(=O)Nc1ccc2[nH]nc(-c3ccc(N4CCN(C)CC4)cc3)c2c1 [Example 45, 5-Cyano-3-methyl-N-(3-(4-(4-methylpiperazin-1-yl)phenyl)-1H-indazol-5-yl)picolinamide] | < 100 | < 100
17 | COc1cc(F)cc(-c2n[nH]c3ccc(NC(=O)c4ncc(C#N)cc4C)cc23)c1 [Example 46, 5-Cyano-N-(3-(3-fluoro-5-methoxyphenyl)-1H-indazol-5-yl)-3-methylpicolinamide] | 100 to 1000 | < 100
18 | COc1ccc(-c2n[nH]c3ccc(NC(=O)c4ncc(C#N)cc4C)cc23)cc1 [Example 47, 5-Cyano-N-(3-(4-methoxyphenyl)-1H-indazol-5-yl)-3-methylpicolinamide] | 100 to 1000 | < 100

Row | SMILES | IC50 [1] [nM] | IC50 [2] [nM]
19 | COc1cc(-c2n[nH]c3ccc(NC(=O)c4ncc(C#N)cc4C)cc23)ccn1 [Example 48, 5-Cyano-N-(3-(2-methoxypyridin-4-yl)-1H-indazol-5-yl)-3-methylpicolinamide] | 100 to 1000 | < 100
20 | Cc1cc(C#N)ncc1C(=O)Nc1ccc2[nH]nc(-c3ccoc3)c2c1 [Example 49, 6-Cyano-N-(3-(furan-3-yl)-1H-indazol-5-yl)-4-methylnicotinamide] | 100 to 1000 | < 100
21 | Cc1cc(C#N)cnc1C(=O)Nc1ccc2[nH]nc(-c3cccnc3)c2c1 [Example 50, 5-Cyano-3-methyl-N-(3-(pyridin-3-yl)-1H-indazol-5-yl)picolinamide] | 100 to 1000 | < 100
22 | Cc1cc(-c2n[nH]c3ccc(NC(=O)c4ncc(C#N)cc4C)cc23)ccc1F [Example 51, 5-Cyano-N-(3-(4-fluoro-3-methylphenyl)-1H-indazol-5-yl)-3-methylpicolinamide] | 100 to 1000 | < 100
23 | COc1ccc(-c2n[nH]c3ccc(NC(=O)c4ncc(C#N)cc4C)cc23)cn1 [Example 52, 5-Cyano-N-(3-(6-methoxypyridin-3-yl)-1H-indazol-5-yl)-3-methylpicolinamide] | 100 to 1000 | < 100
24 | COc1cccc(-c2n[nH]c3ccc(NC(=O)c4ncc(C#N)cc4C)cc23)c1 [Example 53, 5-Cyano-N-(3-(3-methoxyphenyl)-1H-indazol-5-yl)-3-methylpicolinamide] | 100 to 1000 | < 100
25 | Cc1cc(C#N)cnc1C(=O)Nc1ccc2[nH]nc(-c3cccc(OC(F)(F)F)c3)c2c1 [Example 54, 5-Cyano-3-methyl-N-(3-(3-(trifluoromethoxy)phenyl)-1H-indazol-5-yl)picolinamide] | 1000 to 10000 | 100 to 1000
26 | Cc1ccc(-c2n[nH]c3ccc(NC(=O)c4ncc(C#N)cc4C)cc23)cn1 [Example 55, 5-Cyano-3-methyl-N-(3-(6-methylpyridin-3-yl)-1H-indazol-5-yl)picolinamide] | 100 to 1000 | < 100
27 | Cc1ccc(-c2n[nH]c3ccc(NC(=O)c4ncc(C#N)cc4C)cc23)cc1 [Example 56, 5-Cyano-3-methyl-N-(3-(p-tolyl)-1H-indazol-5-yl)picolinamide] | 100 to 1000 | < 100
28 | Cc1cc(C#N)cnc1C(=O)Nc1ccc2[nH]nc(-c3cnn(C)c3)c2c1 [Example 57, 5-Cyano-3-methyl-N-(3-(1-methyl-1H-pyrazol-4-yl)-1H-indazol-5-yl)picolinamide] | < 100 | < 100
29 | Cc1cccc(-c2n[nH]c3ccc(NC(=O)c4ncc(C#N)cc4C)cc23)c1 [Example 58, 5-Cyano-3-methyl-N-(3-(m-tolyl)-1H-indazol-5-yl)picolinamide] | 100 to 1000 | < 100
30 | Cc1cc(C#N)cnc1C(=O)Nc1ccc2[nH]nc(-c3cccc(C(F)(F)F)c3)c2c1 [Example 59, 5-Cyano-3-methyl-N-(3-(3-(trifluoromethyl)phenyl)-1H-indazol-5-yl)picolinamide] | 100 to 1000 | < 100
31 | Cc1cc(C#N)cnc1C(=O)Nc1ccc2[nH]nc(-c3ccc(C(F)(F)F)nc3)c2c1 [Example 60, 5-Cyano-3-methyl-N-(3-(6-(trifluoromethyl)pyridin-3-yl)-1H-indazol-5-yl)picolinamide] | 1000 to 10000 | 100 to 1000
32 | Cc1cc(F)cc(-c2n[nH]c3ccc(NC(=O)c4ncc(C#N)cc4C)cc23)c1 [Example 61, 5-Cyano-N-(3-(3-fluoro-5-methylphenyl)-1H-indazol-5-yl)-3-methylpicolinamide] | 100 to 1000 | < 100
33 | Cc1cc(C#N)cnc1C(=O)Nc1ccc2[nH]nc(-c3cccc(C4CC4)c3)c2c1 [Example 62, 5-cyano-N-(3-(3-cyclopropylphenyl)-1H-indazol-5-yl)-3-methylpicolinamide] | 100 to 1000 | < 100
34 | Cc1ccc(-c2n[nH]c3ccc(NC(=O)c4ncc(C#N)cc4C)cc23)cc1F [Example 63, 5-Cyano-N-(3-(3-fluoro-4-methylphenyl)-1H-indazol-5-yl)-3-methylpicolinamide] | 100 to 1000 | < 100
35 | N#Cc1cnc(C(=O)Nc2ccc3[nH]nc(-c4ccoc4)c3c2)c(C(F)F)c1 [Example 64, 5-Cyano-3-(difluoromethyl)-N-(3-(furan-3-yl)-1H-indazol-5-yl)picolinamide] | 100 to 1000 | < 100
36 | N#Cc1cnc(C(=O)Nc2ccc3[nH]nc(-c4ccoc4)c3c2)s1 [Example 65, 5-Cyano-N-(3-(furan-3-yl)-1H-indazol-5-yl)thiazole-2-carboxamide] | < 100 | < 100
